Measured values from patent US9149536B2, “Conjugated antimicrobial agents” (priority 2009, dated 2015).
Converted amounts (≈) assume the structure as drawn.

Legend:
E. coli R477-100 = test: MIC, double-microdilution, E. coli R477-100; assay type: cell-based, Escherichia coli
E. coli ATCC 25922 = test: MIC, double-microdilution, E. coli ATCC 25922; assay type: cell-based, Escherichia coli; conditions: for MIC E. coli ATCC 25922: Table 4; for MIC E. coli 25922: Table 6
E. coli AG100B = test: MIC, double-microdilution, E. coli AG100B; assay type: cell-based, Escherichia coli
Text: AG100B and AG100A are two kanamycin resistant Escherichia coli strains expressing APH(3′)-I aminoglycoside resistance enzyme.

E. coli AG100A = test: MIC, double-microdilution, E. coli AG100A; assay type: cell-based, Escherichia coli
B. subtilis ATCC 6633 = test: MIC, double-microdilution, B. subtilis ATCC 6633; assay type: cell-based; conditions: for MIC B. subtilis ATCC 6633: Table 4; for MIC Bacillus subtilis: Table 6
MRSA ATCC 43300 = test: microbe, parasite or virus in culture; assay type: cell-based, S. aureus; conditions: Table 4
E. coli XL1 blue/pET9d = test: microbe, parasite or virus in culture; assay type: cell-based; conditions: Table 6
Protocol: (§1) For this purpose, exemplary conjugates, according to some embodiments of the present invention, were tested against five isogenic E. coli strains. E. coli (pSF815) and E. coli (pET9d) are laboratory resistant strains derived by transformation of E. coli XL1 blue (background strain) with the pSF815 and pET9d plasmids, respectively. […] The last two isogenic strains used were E. coli BL21 (background strain) and E. coli (pETSACG1). […] These three enzymes are among the most prevalent modes of resistance found in aminoglycosides resistance strains.
(§2) The MIC ratios were calculated by dividing the MIC value against resistant strain to that against the respective background strain.

E. coli XL1 blue = test: microbe, parasite or virus in culture; assay type: cell-based; conditions: Table 6
Protocol: as §1, §2

[1] = Table 4, kanamycin resistant, APH(3′)-I

Molecule | MIC E. coli R477-100 (E. coli R477-100; Table 4) [µg/mL] | MIC E. coli ATCC 25922 (E. coli ATCC 25922) [µg/mL] | MIC E. coli AG100B (E. coli AG100B; [1]) [µg/mL] | MIC E. coli AG100A (E. coli AG100A; [1]) [µg/mL] | MIC B. subtilis ATCC 6633 (B. subtilis ATCC 6633) [µg/mL] | MIC MRSA ATCC 43300 (MRSA ATCC 43300) [µg/mL] | further results
NCC1OC(OC2C(C(=O)Nc3ccc(-c4cn(CCN5CCN(c6cc7c(cc6F)c(=O)c(C(=O)O)cn7C6CC6)CC5)nn4)cc3)OC(OC3C(O)C(N)CC(N)C3OC3OC(CN)C(O)C(O)C3N)C2O)C(N)C(O)C1O (stereo not shown) [Compound 1a, N-(4-(1-(2-(ciprofloxacin)ethyl)-1H-1,2,3-triazol-4-yl)-5″-phenyl)neomycin] | 12 (≈ 10.6 µM) | 6 (≈ 5.32 µM) | 24 (≈ 21.3 µM) | 0.75 (≈ 0.665 µM) | 6 (≈ 5.32 µM) | 48 (≈ 42.5 µM) | –
NCC1OC(OC2C(C(=O)Nc3ccc(-c4cn(CCCN5CCN(c6cc7c(cc6F)c(=O)c(C(=O)O)cn7C6CC6)CC5)nn4)cc3)OC(OC3C(O)C(N)CC(N)C3OC3OC(CN)C(O)C(O)C3N)C2O)C(N)C(O)C1O (stereo not shown) [Compound 1b, N-(4-(1-(2-(ciprofloxacin)propyl)-1H-1,2,3-triazol-4-yl)-5″-phenyl)neomycin carboxamide] | 6 (≈ 5.25 µM) | 3 (≈ 2.63 µM) | 12 (≈ 10.5 µM) | 1.5 (≈ 1.31 µM) | 6 (≈ 5.25 µM) | 48 (≈ 42 µM) | –
NCC1OC(OC2C(C(=O)Nc3ccc(-c4cn(CCCCN5CCN(c6cc7c(cc6F)c(=O)c(C(=O)O)cn7C6CC6)CC5)nn4)cc3)OC(OC3C(O)C(N)CC(N)C3OC3OC(CN)C(O)C(O)C3N)C2O)C(N)C(O)C1O (stereo not shown) [Compound 1c, N-(4-(1-(2-(ciprofloxacin)butyl)-1H-1,2,3-triazol-4-yl)-5″-phenyl)neomycin carboxamide] | 12 (≈ 10.4 µM) | 6 (≈ 5.19 µM) | 24 (≈ 20.8 µM) | 1.5 (≈ 1.3 µM) | 6 (≈ 5.19 µM) | 24 (≈ 20.8 µM) | –
NCC1OC(OC2C(C(=O)Nc3ccc(-c4cn(CCCCCN5CCN(c6cc7c(cc6F)c(=O)c(C(=O)O)cn7C6CC6)CC5)nn4)cc3)OC(OC3C(O)C(N)CC(N)C3OC3OC(CN)C(O)C(O)C3N)C2O)C(N)C(O)C1O (stereo not shown) [Compound 1d, N-(4-(1-(2-(ciprofloxacin)pentyl)-1H-1,2,3-triazol-4-yl)-5″-phenyl)neomycin carboxamide] | 12 (≈ 10.3 µM) | 6 (≈ 5.13 µM) | 24 (≈ 20.5 µM) | 1.5 (≈ 1.28 µM) | 12 (≈ 10.3 µM) | 48 (≈ 41 µM) | –
NCC1OC(OC2C(C(=O)Nc3ccc(-c4cn(CCCCCCN5CCN(c6cc7c(cc6F)c(=O)c(C(=O)O)cn7C6CC6)CC5)nn4)cc3)OC(OC3C(O)C(N)CC(N)C3OC3OC(CN)C(O)C(O)C3N)C2O)C(N)C(O)C1O (stereo not shown) [Compound 1e, N-(4-(1-(2-(ciprofloxacin)hexyl)-1H-1,2,3-triazol-4-yl)-5″-phenyl)neomycin carboxamide] | 6 (≈ 5.07 µM) | 6 (≈ 5.07 µM) | 12 (≈ 10.1 µM) | 1.5 (≈ 1.27 µM) | 12 (≈ 10.1 µM) | 48 (≈ 40.5 µM) | –
NCC1OC(OC2C(C(=O)Nc3ccc(-c4cn(CCOCCN5CCN(c6cc7c(cc6F)c(=O)c(C(=O)O)cn7C6CC6)CC5)nn4)cc3)OC(OC3C(O)C(N)CC(N)C3OC3OC(CN)C(O)C(O)C3N)C2O)C(N)C(O)C1O (stereo not shown) [Compound 1g, N-(4-(1-(2-(2-(ciprofloxacin)ethoxy)ethyl)-1H-1,2,3-triazol-4-yl)-5″-phenyl)neomycin carboxamide] | 24 (≈ 20.5 µM) | 12 (≈ 10.2 µM) | 12 (≈ 10.2 µM) | 1.5 (≈ 1.28 µM) | 12 (≈ 10.2 µM) | 24 (≈ 20.5 µM) | –
NCC1OC(OC2C(C(=O)NCc3cn(CCN4CCN(c5cc6c(cc5F)c(=O)c(C(=O)O)cn6C5CC5)CC4)nn3)OC(OC3C(O)C(N)CC(N)C3OC3OC(CN)C(O)C(O)C3N)C2O)C(N)C(O)C1O (stereo not shown) [Compound 1j, N-((1-(4-(ciprofloxacin)ethyl)-1H-1,2,3-triazol-4-yl)-5″-methyl)neomycin carboxamide] | 12 (≈ 11.3 µM) | 6 (≈ 5.63 µM) | 12 (≈ 11.3 µM) | 1.5 (≈ 1.41 µM) | 3 (≈ 2.81 µM) | 24 (≈ 22.5 µM) | –
NCC1OC(OC2C(C(=O)NCc3cn(CCCN4CCN(c5cc6c(cc5F)c(=O)c(C(=O)O)cn6C5CC5)CC4)nn3)OC(OC3C(O)C(N)CC(N)C3OC3OC(CN)C(O)C(O)C3N)C2O)C(N)C(O)C1O (stereo not shown) [Compound 1k, N-((1-(4-(ciprofloxacin)propyl)-1H-1,2,3-triazol-4-yl)-5″-methyl)neomycin carboxamide] | 12 (≈ 11.1 µM) | 6 (≈ 5.55 µM) | 12 (≈ 11.1 µM) | 1.5 (≈ 1.39 µM) | 6 (≈ 5.55 µM) | 48 (≈ 44.4 µM) | –
NCC1OC(OC2C(C(=O)NCc3cn(CCCCCN4CCN(c5cc6c(cc5F)c(=O)c(C(=O)O)cn6C5CC5)CC4)nn3)OC(OC3C(O)C(N)CC(N)C3OC3OC(CN)C(O)C(O)C3N)C2O)C(N)C(O)C1O (stereo not shown) [Compound 1l, N-((1-(4-(ciprofloxacin)pentyl)-1H-1,2,3-triazol-4-yl)-5″-methyl)neomycin carboxamide] | 24 (≈ 21.7 µM) | 6 (≈ 5.41 µM) | 24 (≈ 21.7 µM) | 1.5 (≈ 1.35 µM) | 12 (≈ 10.8 µM) | 48 (≈ 43.3 µM) | –
NCC1OC(OC2C(C(=O)NCc3cn(CCOCCN4CCN(c5cc6c(cc5F)c(=O)c(C(=O)O)cn6C5CC5)CC4)nn3)OC(OC3C(O)C(N)CC(N)C3OC3OC(CN)C(O)C(O)C3N)C2O)C(N)C(O)C1O (stereo not shown) [Compound 1n, N-((1-(2-(2-(ciprofloxacin)ethoxy)ethyl)-1H-1,2,3-triazol-4-yl)-5″-methyl)neomycin carboxamide] | 12 (≈ 10.8 µM) | 6 (≈ 5.4 µM) | 12 (≈ 10.8 µM) | 1.5 (≈ 1.35 µM) | 12 (≈ 10.8 µM) | 24 (≈ 21.6 µM) | –
NCC1O[C@@H](O[C@H]2C(N)C[C@H](NCc3cn(CCN4CCN(c5cc6c(cc5F)c(=O)c(C(=O)O)cn6C5CC5)CC4)nn3)C(OC3O[C@@H](CO)C(O)C(N)[C@@H]3O)C2O)C(O)C(O)[C@H]1O (stereo partly shown) [Compound 11a, 4-(1-N-kanamycinmethyl)-1-(2-(ciprofloxacin)ethyl)-1H-1,2,3-triazole] | – | – | – | – | – | – | MIC (E. coli R477-100; Escherichia coli, R477100, read-out: MIC E. Coli R477-100): 6 µg/mL (≈ 6.5 µM); MIC (E. coli ATCC 25922; Escherichia coli, ATCC25922, read-out: MIC E. coli 25922): 3 µg/mL (≈ 3.25 µM); MIC (E. coli AG100B; Escherichia coli, AG100B, read-out: MIC E. coli AG100B, Table 6): 12 µg/mL (≈ 13 µM); MIC (E. coli AG100A; Escherichia coli, AG100A, read-out: MIC E. coli AG100A, Table 6): 0.75 µg/mL (≈ 0.813 µM); MIC (B. subtilis ATCC 6633; Bacillus subtilis, ATCC6633, read-out: MIC Bacillus subtilis): 1.5 µg/mL (≈ 1.63 µM); MIC (E. coli XL1 blue/pET9d; Escherichia coli, XL1BLUE/PET9D, read-out: MIC E. coli XL1 blue/pET9d-aph(3′)-Ia): 6 µg/mL (≈ 6.5 µM); MIC (E. coli XL1 blue; Escherichia coli, XL1BLUE, read-out: MIC E. coli XL1 blue): 6 µg/mL (≈ 6.5 µM)
NCC1OC(OC2C(N)CC(NCc3cn(CC(O)CN4CCN(c5cc6c(cc5F)c(=O)c(C(=O)O)cn6C5CC5)CC4)nn3)C(OC3OC(CO)C(O)C(N)C3O)C2O)C(O)C(O)C1O (stereo not shown) [Compound 11f, 1-(4-(1-N-kanamycinmethyl)-1H-1,2,3-triazol-1-yl)-3-(ciprofloxacin)propan-2-ol] | – | – | – | – | – | – | MIC E. coli R477-100 (E. coli R477-100; Table 6): 3 µg/mL (≈ 3.15 µM); MIC E. coli 25922 (E. coli ATCC 25922): 1.5 µg/mL (≈ 1.57 µM); MIC E. coli AG100B (E. coli AG100B; Table 6): 6 µg/mL (≈ 6.3 µM); MIC E. coli AG100A (E. coli AG100A; Table 6): 0.75 µg/mL (≈ 0.787 µM); MIC Bacillus subtilis (B. subtilis ATCC 6633): 1.5 µg/mL (≈ 1.57 µM); MIC E. coli XL1 blue/pET9d-aph(3′)-Ia (E. coli XL1 blue/pET9d): 3 μg/ml; MIC E. coli XL1 blue (E. coli XL1 blue): 3 µg/mL (≈ 3.15 µM)
NCC1OC(OC2C(N)CC(NCc3cn(Cc4ccc(CN5CCN(c6cc7c(cc6F)c(=O)c(C(=O)O)cn7C6CC6)CC5)cc4)nn3)C(OC3OC(CO)C(O)C(N)C3O)C2O)C(O)C(O)C1O (stereo not shown) [Compound 11i, 4-(1-N-kanamycinmethyl)-1-(4-((ciprofloxacin)methyl)benzyl)-1H-1,2,3-triazole] | – | – | – | – | – | – | MIC E. coli R477-100 (E. coli R477-100; Table 6): 6 µg/mL (≈ 6.01 µM); MIC E. coli 25922 (E. coli ATCC 25922): 6 µg/mL (≈ 6.01 µM); MIC E. coli AG100B (E. coli AG100B; Table 6): 12 µg/mL (≈ 12 µM); MIC E. coli AG100A (E. coli AG100A; Table 6): 0.75 µg/mL (≈ 0.751 µM); MIC Bacillus subtilis (B. subtilis ATCC 6633): 3 µg/mL (≈ 3 µM); MIC E. coli XL1 blue/pET9d-aph(3′)-Ia (E. coli XL1 blue/pET9d): 3 μg/ml; MIC E. coli XL1 blue (E. coli XL1 blue): 3 µg/mL (≈ 3 µM)
NC[C@H]1O[C@H](O[C@H]2[C@H](O)[C@@H](O[C@H]3O[C@H](CO)[C@@H](O)[C@H](N)[C@H]3O)[C@H](N)C[C@@H]2N)[C@H](O)[C@@H](O)[C@@H]1O [KanA, kanamycin A, reference compound] | – | – | – | – | – | – | MIC E. coli R477-100 (E. coli R477-100; Table 6): 24 µg/mL (≈ 49.5 µM); MIC E. coli 25922 (E. coli ATCC 25922): 12 µg/mL (≈ 24.8 µM); MIC E. coli AG100B (E. coli AG100B; Table 6): >384 µg/mL; MIC E. coli AG100A (E. coli AG100A; Table 6): 384 µg/mL (≈ 793 µM); MIC Bacillus subtilis (B. subtilis ATCC 6633): 1.5 µg/mL (≈ 3.1 µM); MIC E. coli XL1 blue/pET9d-aph(3′)-Ia (E. coli XL1 blue/pET9d): >384 μg/ml; MIC E. coli XL1 blue (E. coli XL1 blue): 3 µg/mL (≈ 6.19 µM)
N-(4-(1-(4-((ciprofloxacin)methyl)benzyl)-1H-1,2,3-triazol-4-yl)-5″-phenyl)neomycin carboxamide [Compound 1h] | 6 | 12 | 12 | 1.5 | 6 | 12 | –
